Test results from patent publication US10280158B2, “Immune adjustment compound, use thereof and pharmaceutical composition comprising same” (SUZHOU CONNECT BIOPHARMACEUTICALS, LTD., priority 2013, dated 2019).
Where two headings read alike, the source gives them in different places.

What was measured:
[1] = In vivo pharmacokinetic experiment, oral administration; set-up: species or system Sprague Dawley rats; conditions: for half-life: po, 3 mg/kg
Method: In this Example, the pharmacokinetic properties of compounds 1, 2, 3, 4 and 5 were evaluated via. i.v. and p.o. dosing to Sprague Dawley rats.
Experimental animals used in this Example and hereinafter were male SD rats of 7-9 weeks old, with body weight ranging from 186 to 231 g, which were purchased from Beijing Vital River Laboratory Animal Technology Co., Ltd. The animals were quarantined by veterinarian for 5 days after purchase, then animals had passed quarantine inspection were selected to be tested under SPE conditions, wherein the tested animals are assigned into 3 rats per group as follows.
Oral administration group: 2.74 mg of each of compounds 1-5 was respectively prepared into a solution of 0.3 mg/mL by using 9.113 mL 0.5% CMC-Na as a diluent. Each solution was vortexed 1-2 mins after mixed fully, and then was ultrasonically treated for 20-30 mins until a uniform suspension was obtained. The uniform suspension was used as medicine administrated to oral administration group, and the administration was conducted with a dose of 10 mL/kg body weight of each rat.
For both oral administration group and intravenous administration group, blood samples were collected at 0.0833 h (5 min), 0.25 h (15 min), 0.5 h, 1 h, 2 h, 4 h, 8 h, and 24 h after administration. After isoflurane anesthesia 0.3 mL whole blood was collected from orbital venous plexus of the animals at each time point. The animals would be euthanized after all samples were collected.
The collected blood samples were placed in EP tubes containing heparin sodium (about 10 μl, 1000 IU/mL), which were then placed in trash ice immediately, and centrifuged at 4,000 rpm and a low temperature (4° C.) for 5 minutes. The plasma was isolated rapidly and then stored at −20° C. until analysis.
The concentration of each compound in blood was measured by LC-MS/MS-001 (Q-trap-3200) with osalmide as internal standard material, as follows. 24 μL blank plasma was added into 6 μL plasma sample (5 times of dilution), and then a solution of acetonitrile containing 150 μL internal standard material (osalmide in 100 μg/mL) was added in. The mixture was shaken for 5 minutes, and then centrifuged at 4,000 rpm for 5 minutes. 2 μL of the obtained sample was implanted into LC-MS/MS for analysis. As for undiluted plasma sample, 30 μL of it was added into a solution of acetonitrile containing 150 μL internal standard material (osalmide in 100 μg/mL). The mixture was shaken for 5 minutes, and then centrifuged at 4,000 rpm for 5 minutes. 2 μL of the obtained sample was implanted into LC-MS/MS for analysis.
As for data analysis, WinNolin (V6.2) non-compartment model (NCA) was used for calculating main metabolic pharmacokinetic parameters including t1/2, AUC(0−t), AUCinf, V, Cl, MRT, etc., and Microsoft Office EXCEL was used for calculating mean values, standard deviations and coefficients of variation.

human S1P1 = target: T1, human S1P1 (Homo sapiens, UniProt P21453); experiment: Internalization effect experiment on S1P1 (CHO-S cells, Myc tag, flow cytometry); assay type: cell-based
T1 construct: expressed in transfected cells; host or cells: CHO-S cells
Text: It is well known that S1P1 small molecule agonists can prevent lymphocytes from entering the peripheral circulation by inducing internalization of S1P1 on cell surface. In order to determine whether the compounds provided by present invention have an activity of inducing S1P1 internalization, CHO—S cells expressing human S1P1, to replace the lymphocytes, are used as detection system of S1P1 internalization. For ease of monitoring the S1P1 on cell surface, a Myc tag is fused to N-terminal of S1P1, thus the expression of S1P1 is analyzed by flow cytometry after incubating the cells with fluorescent-labeled antibody against the Myc tag.
A 10 mM stock solution was prepared by dissolving compound 2 provided by the present invention in dimethyl sulfoxide (DMSO), and then the stock solution was diluted to different concentrations as desired with DMEM. CHO—S cells bearing human S1P1 with Myc tag were harvested and then adjusted to a density of one million cells per mL by Dulbecco's modified Eagle's medium (DMEM). Different concentrations of Compound 2 diluted in an equal volume were mixed and the cell suspension and then incubated at 37° C. for 1 hour. After incubation, the mixture was centrifuged at 800 RPM for 5 minutes to obtain the cells. The cells were resuspended in FACS buffer (PBS containing 1% BSA), and Myc antibody labelled with fluorescein isothiocyanate (FITC) (from Californian Miltenyi Biotec GmbH, USA) was added in and incubated for 1 hour on ice. The cells were washed, resuspended in pre-cooled FACS buffer and analysed by FACS Calibur flow cytometry.

[2] = test system: lymphocytes in the peripheral blood; experiment: Effect on the number of lymphocytes in the peripheral blood; assay type: in vivo, Sprague-Dawley (SD) rats; conditions: oral, SD rats
Text: S1P1, which is expressed on the surface of lymphocytes, is essential for lymphocytes to leave the secondary lymphoid tissue and then enter into the peripheral circulation. Small molecule agonists of S1P1 can activate the receptor and result in an internalization effect on the receptor. This mechanism is a currently known mechanism by which lymphocytes are prevented from leaving the secondary lymphoid tissue, then resulting in an decreased number of lymphocytes in the peripheral circulation. In order to determine whether the compounds provided by present invention can reduce the number of lymphocytes in the peripheral blood, an in vivo effect experiment on lymphocytes is performed.
An appropriate amount of compound 2 was prepared as a suspension with sodium carboxymethylcellulose (CMC-Na) and was given orally to three Sprague-Dawley (SD) rats. Blood samples (0.5 ml) were collected at 30 min before the administration and at different time points after the administration (the collected blood samples were placed in EP tubes containing an appropriate amount of EDTA-2K solution), and analyzed on ADVIA2120 blood cell analyzer directly.

[3] = test system: experimental autoimmune encephalomyelitis (EAE); experiment: Experimental autoimmune encephalomyelitis (EAE) model; assay type: in vivo; conditions: oral, 0.03, 0.1 and 1 mg/kg, Day 0 to Day 30, C57BL/6 mice
Method: Eighty female C57BL/6 mice were randomly assigned into eight groups based on body weight and immunized in this study. Each group consisted of ten (10) mice. To induce the disease, MOG 35-55 (MOG, myelin oligo-dendrocyte glycoprotein) was dissolved in saline to a concentration of 2 mg/mL, and was emulsified in modified complete Freund's Adjuvant (CFA). Mice were anesthetized with isoflurane and were then injected with 100 μL of emulsion subcutaneously into the shaved backs of the mice at three sites, one along the midline of the back between the shoulders, and two on each side of the midline on the lower back. Pertuxus toxin (200 ng in 200 μL of PBS) was administered i.p. on the day of immunization and 48 hours after for all groups. EAE development was assessed by clinically scoring of the mice once daily from Day 0 to Day 30 post immunization.

[4] = male, Sprague-Dawley, rat, plasma, oral administration (3 mg/kg), SD rats

T1 sequence (P21453 whole entry): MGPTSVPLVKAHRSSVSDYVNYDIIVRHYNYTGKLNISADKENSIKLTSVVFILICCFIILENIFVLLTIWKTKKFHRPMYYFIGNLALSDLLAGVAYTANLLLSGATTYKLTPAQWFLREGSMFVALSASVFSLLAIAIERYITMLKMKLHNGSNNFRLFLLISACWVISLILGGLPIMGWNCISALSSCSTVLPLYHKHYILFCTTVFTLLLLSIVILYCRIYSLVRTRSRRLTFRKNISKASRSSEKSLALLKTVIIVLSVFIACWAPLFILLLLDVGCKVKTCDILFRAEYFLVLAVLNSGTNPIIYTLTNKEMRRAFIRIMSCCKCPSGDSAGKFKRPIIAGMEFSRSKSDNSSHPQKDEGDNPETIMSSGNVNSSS

CC(C)Cc1ccc(-c2nc(-c3ccc(CN4CC(C(=O)O)C4)c(F)c3)no2)cc1 [Compound 2, 1-{2-fluoro-4-[5-(4-isobutylphenyl)-1,2,4-oxadiazol-3-yl]-benzyl}-3-azetidine carboxylic acid]
half-life shortening relative to compound 1 ([1]; after oral administration, rats): ~50%
half-life ([1]; male, Sprague-Dawley, rat, plasma, after oral administration, rats, read-out: terminal half-life (converted)): < 5.5 h
half-life ([1]; male, Sprague-Dawley, rat, plasma, oral administration (3 mg/kg), SD rats, read-out: T½ (converted)): 5.47 ± 0.63 h
AUC(0-inf) [1, 4]: 3830 ± 184 ng·h/mL
Cmax [1, 4]: 341 ± 36.2 ng/mL
Tmax [1, 4]: 2 h
F ([1]; oral administration (3 mg/kg), SD rats): 63.4%
elimination speed after the highest concentration, compared with compounds 1 and 5 ([1]; oral administration, rats, FIGS. 1A and 1B, in words): accelerated obviously
EC50 (human S1P1; CHO-S cells expressing human S1P1, 1 hour at 37° C., read-out: Receptor Internalization (EC50) S1P1): 9.83 nM
activity of inducing S1P1 internalization (human S1P1; CHO-S cells expressing human S1P1, in words): dose-dependent manner
number of peripheral mononuclear cells and other leukocytes ([2]; in words): unobviously
reduction of lymphocytes in the peripheral blood ([2]; dose of 0.01 mg/kg): more than 50%
reduction of lymphocytes in the peripheral blood ([2]; dose of 1 mg/kg, in words): the most reduction
number of lymphocytes in the peripheral blood ([2]; three doses, 30 to 480 minutes after administration, in words): reduced the number of lymphocytes in the peripheral blood effectively
development of EAE (clinical score) [3]: effectively inhibited development of EAE
